# Reference: article PMC8508980, “Design, Synthesis and Anticancer Profile of New 4-(1H-benzo[d]imidazol-1-yl)pyrimidin-2-amine-Linked Sulfonamide Derivatives with V600EBRAF Inhibitory Effect” (International Journal of Molecular Sciences, 2021)
# Assays:
# Experiment in all cases: NCI 60 cell line screen
# Assay type in all cases: cell-based, human
# NCI/ADR-RES = conditions: Homo sapiens, Ovarian Cancer, read-out: Percent growth
# Outline: (§1)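 Growth inhibition is expressed as percent growth versus time-zero and vehicle controls, from SRB absorbance at 515 nm. Compounds span five concentrations (max 10 µM) for 48 h in RPMI 1640 with 5% serum. TGI corresponds to Ti = Tz.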
# SF-295 = conditions: Homo sapiens; SF-295, CNS-Cancer; read-out: Percent growth
# Outline: as §1
# SNB-75 = conditions: Homo sapiens; SNB-75, CNS-Cancer; read-out: Percent growth
# Outline: as §1
# HT29 = conditions: for activity at 10 µM: Homo sapiens, HT-29, HT29, Colon Cancer, read-out: Percent growth
# Outline: as §1
# KM12 = conditions: for activity at 10 µM: Homo sapiens, KM12, Colon Cancer, read-out: Percent growth
# Outline: (§2)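 Human tumour lines were grown in RPMI 1640 with 5% FBS and 2 mM L-glutamine, then exposed 48 h at 37 °C to five concentrations (max 10 µM) after 24 h pre-incubation. Growth was measured by sulforhodamine B protein staining at 515 nm relative to time-zero and untreated controls.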
# RXF 393 = conditions: for activity at 10 µM: Homo sapiens, RXF 393, Renal Cancer, read-out: Percent growth
# Outline: as §1
# NCI-H226 = conditions: for activity at 10 µM: Homo sapiens, NCI-H226, Non-Small Cell Lung Cancer, read-out: Percent growth; for percent inhibition: NCI-H226, NCI-60 heat map analysis
# Outline: as §2
# NCI-H460 = conditions: Homo sapiens; NCI-H460, Non-Small Cell Lung Cancer; read-out: Percent growth
# Outline: as §1
# HCT-15 = conditions: for activity at 10 µM: Homo sapiens, HCT-15, Colon Cancer, read-out: Percent growth
# Outline: as §1
# SR = conditions: for activity at 10 µM: Homo sapiens, Leukemia, read-out: Percent growth
# Outline: as §2
# NCI-H23 = conditions: Homo sapiens; NCI-H23, Non-Small Cell Lung Cancer; read-out: Percent growth
# Outline: as §1
# K-562 = conditions: for activity at 10 µM: Homo sapiens, K562, K-562, Leukemia, read-out: Percent growth
# Outline: as §1
# T-47D = conditions: for activity at 10 µM: Homo sapiens, T47D, Breast Cancer, read-out: Percent growth; for percent inhibition: NCI-60 heat map analysis
# Outline: as §2
# RPMI-8226 = conditions: Homo sapiens; RPMI-8226, Leukemia; read-out: Percent growth
# Outline: as §2
# CAKI-1 = conditions: for activity at 10 µM: Homo sapiens, CAKI-1, Renal Cancer, read-out: Percent growth
# Outline: as §1
# MDA-MB-468 = conditions: Homo sapiens; MDA-MB-468, Breast Cancer; read-out: Percent growth
# Outline: as §2
# UO-31 = conditions: for activity at 10 µM: Homo sapiens, UO-31, Renal Cancer, read-out: Percent growth
# Outline: as §1
smiles,measurement,setting,value
"O=S(=O)(NCCCNc1nccc(-n2cnc3ccccc32)n1)c1ccccc1 [12h, N-(3-((4-(1H-benzo [d]imidazol-1-yl)pyrimidin-2-yl)amino)propyl)benzenesulfonamide]",activity at 10 µM,NCI/ADR-RES,86.2%
same,activity at 10 µM,SF-295,92.5%
same,activity at 10 µM,SNB-75,89.7%
same,activity at 10 µM,HT29,101%
same,activity at 10 µM,KM12,71%
same,activity at 10 µM,RXF 393,110%
same,activity at 10 µM,NCI-H226,81%
same,activity at 10 µM,NCI-H460,96.9%
same,activity at 10 µM,HCT-15,88%
same,activity at 10 µM,SR,80%
same,activity at 10 µM,NCI-H23,91.8%
same,activity at 10 µM,K-562,79.5%
same,activity at 10 µM,T-47D,45.8%
same,percent inhibition,T-47D,55%
same,activity at 10 µM,RPMI-8226,74.3%
same,activity at 10 µM,CAKI-1,87.4%
same,activity at 10 µM,MDA-MB-468,68.8%
same,activity at 10 µM,UO-31,75.3%
"O=S(=O)(NCCCNc1nccc(-n2cnc3ccccc32)n1)c1ccc(F)cc1 [12i, N-(3-((4-(1H-benzo [d]imidazol-1-yl)pyrimidin-2-yl)amino)propyl)-4-fluorobenzenesulfonamide]",activity at 10 µM,NCI/ADR-RES,64.3%
same,activity at 10 µM,SF-295,70.6%
same,activity at 10 µM,SNB-75,82.5%
same,activity at 10 µM,HT29,92.8%
same,activity at 10 µM,KM12,48.9%
same,percent inhibition,"KM12; KM12, NCI-60 heat map analysis",around 50%
same,activity at 10 µM,RXF 393,163%
same,activity at 10 µM,NCI-H226,64.1%
same,percent inhibition,NCI-H226,around 30%
same,activity at 10 µM,NCI-H460,79.7%
same,activity at 10 µM,HCT-15,82.8%
same,activity at 10 µM,SR,36.8%
same,activity at 10 µM,NCI-H23,70.4%
same,activity at 10 µM,K-562,37.2%
same,activity at 10 µM,T-47D,25.5%
same,percent inhibition,T-47D,75%
same,activity at 10 µM,RPMI-8226,57.8%
same,activity at 10 µM,CAKI-1,71%
same,activity at 10 µM,MDA-MB-468,50.2%
same,activity at 10 µM,UO-31,59.3%
"O=S(=O)(NCCCNc1nccc(-n2cnc3ccccc32)n1)c1ccc(Cl)cc1 [12j, N-(3-((4-(1H-benzo [d]imidazol-1-yl)pyrimidin-2-yl)amino)propyl)-4-chloro benzenesulfonamide]",activity at 10 µM,NCI/ADR-RES,98.2%
same,activity at 10 µM,SF-295,97.8%
same,activity at 10 µM,SNB-75,91.7%
same,activity at 10 µM,HT29,104%
same,activity at 10 µM,KM12,92%
same,activity at 10 µM,RXF 393,124%
same,activity at 10 µM,NCI-H226,83.2%
same,activity at 10 µM,NCI-H460,99.8%
same,activity at 10 µM,HCT-15,93.1%
same,activity at 10 µM,SR,81.5%
same,activity at 10 µM,NCI-H23,97.1%
same,activity at 10 µM,K-562,79.2%
same,activity at 10 µM,T-47D,65.3%
same,activity at 10 µM,RPMI-8226,78%
same,activity at 10 µM,CAKI-1,94.5%
same,activity at 10 µM,MDA-MB-468,93.8%
same,activity at 10 µM,UO-31,87.2%
"O=S(=O)(NCCCNc1nccc(-n2cnc3ccccc32)n1)c1ccc(Br)cc1 [12k, N-(3-((4-(1H-benzo [d]imidazol-1-yl)pyrimidin-2-yl)amino)propyl)-4-bromo benzenesulfonamide]",activity at 10 µM,NCI/ADR-RES,88.9%
same,activity at 10 µM,SF-295,86.5%
same,activity at 10 µM,SNB-75,86.1%
same,activity at 10 µM,HT29,103%
same,activity at 10 µM,KM12,68.3%
same,activity at 10 µM,RXF 393,111%
same,activity at 10 µM,NCI-H226,80.2%
same,activity at 10 µM,NCI-H460,94.3%
same,activity at 10 µM,HCT-15,83.2%
same,activity at 10 µM,SR,70.8%
same,percent inhibition,SR; NCI-60 heat map analysis,30%
same,activity at 10 µM,NCI-H23,92.8%
same,activity at 10 µM,K-562,73.5%
same,activity at 10 µM,T-47D,45.3%
same,percent inhibition,T-47D,55%
same,activity at 10 µM,RPMI-8226,71.1%
same,activity at 10 µM,CAKI-1,84.5%
same,activity at 10 µM,MDA-MB-468,70.7%
same,activity at 10 µM,UO-31,74.3%
"O=S(=O)(NCCCNc1nccc(-n2cnc3ccccc32)n1)c1ccc(C(F)(F)F)cc1 [12l, N-(3-((4-(1H-benzo [d]imidazol-1-yl)pyrimidin-2-yl)amino)propyl)-4-(trifluoromethyl) benzenesulfonamide]",activity at 10 µM,NCI/ADR-RES,55.8%
same,activity at 10 µM,SF-295,69.8%
same,activity at 10 µM,SNB-75,65.2%
same,percent inhibition,"HT29; HT29, NCI-60 heat map analysis",more than 40%
same,activity at 10 µM,HT29,54.6%
same,activity at 10 µM,KM12,51.7%
same,activity at 10 µM,RXF 393,43.8%
same,percent inhibition,"RXF 393; RXF 393, NCI-60 heat map analysis",57%
same,activity at 10 µM,NCI-H226,57.6%
same,percent inhibition,NCI-H226,around 40%
same,activity at 10 µM,NCI-H460,79.3%
same,percent inhibition,"HCT-15; HCT-15, NCI-60 heat map analysis",more than 40%
same,activity at 10 µM,HCT-15,53.8%
same,activity at 10 µM,SR,58%
same,activity at 10 µM,NCI-H23,82.5%
same,activity at 10 µM,K-562,33.9%
same,activity at 10 µM,T-47D,16.8%
same,percent inhibition,T-47D,84%
same,activity at 10 µM,RPMI-8226,55.6%
same,percent inhibition,"CAKI-1; CAKI-1, NCI-60 heat map analysis",49%
same,activity at 10 µM,CAKI-1,51.4%
same,activity at 10 µM,MDA-MB-468,52.7%
same,activity at 10 µM,UO-31,54.4%
same,percent inhibition,"UO-31; UO-31, NCI-60 heat map analysis",46%
"COc1ccc(S(=O)(=O)NCCCNc2nccc(-n3cnc4ccccc43)n2)cc1 [12m, N-(3-((4-(1H-benzo [d]imidazol-1-yl)pyrimidin-2-yl)amino)propyl)-4-methoxy benzenesulfonamide]",activity at 10 µM,NCI/ADR-RES,105%
same,activity at 10 µM,SF-295,90.5%
same,activity at 10 µM,SNB-75,88.2%
same,activity at 10 µM,HT29,99.7%
same,activity at 10 µM,KM12,84.1%
same,activity at 10 µM,RXF 393,80.6%
same,activity at 10 µM,NCI-H226,73.2%
same,activity at 10 µM,NCI-H460,97.3%
same,activity at 10 µM,HCT-15,92.3%
same,activity at 10 µM,SR,77.6%
same,activity at 10 µM,NCI-H23,91.9%
same,activity at 10 µM,K-562,78.8%
same,activity at 10 µM,T-47D,66.3%
same,activity at 10 µM,RPMI-8226,78.6%
same,activity at 10 µM,CAKI-1,68.8%
same,activity at 10 µM,MDA-MB-468,77.2%
same,activity at 10 µM,UO-31,67.2%
"O=S(=O)(NCCCNc1nccc(-n2cnc3ccccc32)n1)c1cccc2ccccc12 [12n, N-(3-((4-(1H-benzo [d]imidazol-1-yl)pyrimidin-2-yl)amino)propyl)naphthalene-1-sulfonamide]",activity at 10 µM,NCI/ADR-RES,81.1%
same,activity at 10 µM,SF-295,81.2%
same,activity at 10 µM,SNB-75,87.2%
same,activity at 10 µM,HT29,96.3%
same,activity at 10 µM,KM12,79.8%
same,activity at 10 µM,RXF 393,105%
same,activity at 10 µM,NCI-H226,77.8%
same,activity at 10 µM,NCI-H460,89.8%
same,activity at 10 µM,HCT-15,81.8%
same,activity at 10 µM,SR,75.4%
same,activity at 10 µM,NCI-H23,91.3%
same,activity at 10 µM,K-562,67.6%
same,percent inhibition,"K-562; K-562, NCI-60 heat map analysis",around 30%
same,activity at 10 µM,T-47D,44.7%
same,percent inhibition,T-47D,56%
same,activity at 10 µM,RPMI-8226,69.7%
same,activity at 10 µM,CAKI-1,60.5%
same,activity at 10 µM,MDA-MB-468,76.2%
same,activity at 10 µM,UO-31,60.7%
